According to patent US8883718B2, “Treating cancer” (Theryte Limited, priority 2008, dated 2014):
“Also recorded” adds a separate entry of the source. Where a SMILES comes first, the peptide text is derived from it.

Key:
Assay type in all cases: cell-based
[1] = tested on: H460 human non-small cell lung cancer cells; test: clonogenic assay on H460 cells
Procedure: The first experiments were carried out on cyc-[[…]] (THR 53, (SEQ ID NO: 9)), see FIG. 4. Whilst the 96 well assays described in Example 3 are suitable for initial screening of small amounts of peptide material the long incubation periods in dense culture do themselves compromise cell viability to some extent. […] In clonogenic assays, (previously described by Warenius et al Br J Cancer (2000) 83(8), 1048-1059) single cell suspensions of 100 cells are plated in plentiful volumes of 2 ml of Ham's F12 tissue culture medium supplemented with 10% FCS and incubated for 15, 20 or 25 days. A high percentage of the plated cells (40-60% in the case of H460) go through repeated doublings to yield colonies of 200 or more cells which can be easily visualized by the naked eye and counted under a low power lens when stained by giemsa stain.
The efficacy of THR53 was compared to Ac-PRGPRP-NH2 (SEQ ID NO: 2) using a clonogenic assay.

[2] = tested on: normal diploid human keratinocytes; test: normal keratinocyte cultures exposed to THR53; details: 200 μM
Procedure: FIGS. 7(g), (h), (i,) and (j) show established cultures of H460 human non-small cell lung cancer cells (i, j) and normal diploid human keratinocytes (g, h) in the presence and absence of THR53. 10^4 tumor or keratinocyte cells were plated in 2.5 cm diameter tissue culture wells and 5 days later vehicle (g, i) or 200 μM THR53 (SEQ ID NO: 9) (h, j) were added. Further incubation was carried out for 7 days.
(§1) In a clinical context this might provide a biomarker of therapeutic efficacy. […] Such a homogeneous therapeutic response is in marked contrast to the wide range of variability in dose response of different cancer cell lines seen with conventional chemotherapeutic agents^24. Cancer cells both underwent successful mitosis and died (FIG. 3f) or died in interphase (FIG. 7d). […] MRC-hTERT fibroblasts (FIG. 7c) and short term cultures of normal diploid human keratinocytes (FIG. 3h) were not killed by 200 μM THR53.

[3] = tested on: MRC-hTERT immortalized normal human fibroblasts; test: MRC-hTERT fibroblasts exposed to THR53; details: 200 μM
Procedure: FIGS. 7(c), (d) and (e) show time lapse photomicrographs of H460 human non-small cell lung cancer cells and MRC-hTERT immortalized normal human fibroblasts growing in tissue culture following exposure to 200 μM THR53 (SEQ ID NO: 9) (d, e) and untreated control H460 cells (c). Magnification ×10.
as §1

[4] = tested on: Eleven human cancer cell lines covering a wide range of histologies; test: eleven human cancer cell lines exposed to THR53 (morphology and clonogenic assays); details: 200 μM
Procedure: as §1

CC(C)C[C@@H]1NC(=O)[C@H](C)NC(=O)[C@H](CC(C)C)NC(=O)[C@H](CCCCN)NC(=O)[C@H](C(C)C)NC(=O)[C@@H]2CCCN2C(=O)[C@H](CCCNC(=N)N)NC(=O)[C@@H]2CCCN2C(=O)CNC(=O)[C@H](CCCNC(=N)N)NC(=O)[C@@H]2CCCN2C(=O)[C@@H]2CCCN2C(=O)[C@H](Cc2ccccc2)NC(=O)[C@H](CCCCN)NC(=O)[C@H](CC(C)C)NC(=O)[C@H](C)NC(=O)[C@H](CC(C)C)NC(=O)[C@H](CCCCN)NC1=O [THR53] (cyclo(ALKFPPRGPRPVKLALKL))
lethality on H460 non-small cell lung cancer cells ([1]; 100 uM, no colonies visible): 100%
H460 cell survival in clonogenic assay ([1]; drug concentrations 10 to 100 μM): significantly decreased
killing of normal diploid human keratinocytes in short term culture [2]: not killed
killing of MRC-hTERT fibroblasts [3]: not killed
mode of cancer cell death [4]: no features of apoptosis
response / lethality in clonogenic assays ([4]; 15 days after exposure, eleven human cancer cell lines): complete lethality; also recorded: complete response
